In brackets after ≈: the same amount, converted by molar mass. Read-outs that look alike come from different tables or passages of the source.
What was measured:
[1] = system: B. cereus ATCC 10876; assay: micro-dilution broth MIC; assay type: cell-based, Bacillus cereus
Description: (§1) The cytotoxic effect of the compounds was evaluated using glioblastoma (T98G), neuroblastoma (SK-N-AS) and lung adenocarcinoma (A549) cell lines and human normal skin fibroblasts (CCD-1059Sk). T98G and SK-N-AS cells were cultured in DMEM, high glucose; A549 cells were cultured in DMEM/F12; and CCD-1059Sk cells were cultured in MEM. All media were supplemented with 10% FBS, 100 U/mL of penicillin and […] of streptomycin (PenStrep). Cells were incubated at 37 °C in a humidified atmosphere of 5% CO2. Stock solutions were prepared by dissolving the compounds in sterile dimethyl sulfoxide (DMSO) to obtain the concentration of 50 mg/mL. The cells were seeded into 96-well sterile plates (Nunc) at a density of 1 × 10^5 cells/mL. After 24 h of incubation, the medium was removed from each well, and then cells were incubated for the next 24 h with different concentrations of the tested compounds (1–100 µg/mL) in respective medium containing 2% FBS. Cytotoxicity of the compounds was evaluated using the MTT assay, which is based on the conversion of 3-(4,5-dimethylthiazol-2-yl)-2,5-diphenyltetrazolium bromide (MTT) into dark-blue formazan crystals. Briefly, after 24 h incubation of cells with varying concentrations of the tested compounds, all culture media were removed from the plates. Cells were washed with PBS, and then 100 µL of medium containing 10% MTT solution (5 mg/mL) was added to each well. After 3 h incubation, 100 µL (per well) of 10% SDS buffer solution was added to solubilize formazan crystals. After overnight incubation, the absorbance was measured at 570 nm using a microplate reader (Epoch, BioTek Instruments). Experiments were repeated twice, and the measurements in each experiment were run in triplicate. The viability of the investigated cells was expressed as a percentage of the viability of the untreated cells, and the results were transformed into IC50 values (expressed as mean ± SD). […] The complexes were screened for antibacterial and antifungal activities by micro-dilution broth method using Mueller–Hinton broth for growth of bacteria or Mueller–Hinton broth with 2% glucose for growth of fungi. Minimal inhibitory concentrations (MICs) of the tested derivatives were evaluated for the panel of the reference microorganisms from the American Type Culture Collection (ATCC), including Gram-negative bacteria (Escherichia coli ATCC 25922, Salmonella Typhimurium ATCC14028, Klebsiella pneumoniae ATCC 13883, Pseudomonas aeruginosa ATCC 9027, Proteus mirabilis ATCC 12453), Gram-positive bacteria (Staphylococcus aureus ATCC 25923, Staphylococcus epidermidis ATCC 12228, Micrococcus luteus ATCC 10240, Enterococcus faecalis ATCC 29212, Bacillus subtilis ATCC 6633, Bacillus cereus ATCC 10876) and fungi (Candida albicans ATCC 10231, Candida parapsilosis ATCC 22019, C. glabrata ATCC 90030).

[2] = system: M. luteus ATCC 10240; assay: micro-dilution broth MIC; assay type: cell-based, Micrococcus luteus
Description: as §1

[3] = system: human normal skin fibroblasts (CCD-1059Sk); assay: MTT cytotoxicity assay, normal fibroblasts; assay type: cell-based; conditions: MTT assay after 24 h incubation, normal cells; for IC50: Homo sapiens, CCD-1059Sk, read-out: IC50 ± SD, CCD-1059-Sk
Description: as §1

[4] = system: S. epidermidis ATCC 12228; assay: micro-dilution broth MIC; assay type: cell-based, Staphylococcus epidermidis
Description: as §1

[5] = system: S. typhimurium ATCC 14028; assay: micro-dilution broth MIC; assay type: cell-based, Salmonella Typhimurium; conditions: Gram-negative
Description: as §1

[6] = system: C. glabrata ATCC 2091; assay: micro-dilution broth MIC; assay type: cell-based
[7] = system: glioblastoma (T98G) cell line; assay: MTT cytotoxicity assay, T98G; assay type: cell-based; conditions: MTT assay after 24 h incubation; for IC50: Homo sapiens, T98G, read-out: IC50 ± SD, T98G
Description: as §1

[8] = system: B. subtilis ATCC 6633; assay: micro-dilution broth MIC; assay type: cell-based, Bacillus subtilis
Description: as §1

[9] = system: E. coli ATCC 25922; assay: micro-dilution broth MIC; assay type: cell-based, Escherichia coli
Description: as §1

[10] = system: lung adenocarcinoma (A549) cell line; assay: MTT cytotoxicity assay, A549; assay type: cell-based, human; conditions: MTT assay after 24 h incubation; for IC50: Homo sapiens, A549, read-out: IC50 ± SD, A549
Description: as §1

[11] = system: E. faecalis ATCC 29212; assay: micro-dilution broth MIC; assay type: cell-based, Enterococcus faecalis
Description: as §1

[12] = system: P. aeruginosa ATCC 9027; assay: micro-dilution broth MIC; assay type: cell-based, Pseudomonas aeruginosa
Description: as §1

[13] = system: C. parapsilosis ATCC 22019; assay: micro-dilution broth MIC; assay type: cell-based, Candida parapsilosis
Description: as §1

[14] = system: S. aureus ATCC 25923; assay: micro-dilution broth MIC; assay type: cell-based, Staphylococcus aureus
Description: as §1

[15] = system: K. pneumoniae ATCC 13883; assay: micro-dilution broth MIC; assay type: cell-based, Klebsiella pneumoniae
Description: as §1

[16] = system: C. albicans ATCC 102231; assay: micro-dilution broth MIC; assay type: cell-based, Candida albicans
Description: as §1

[17] = system: neuroblastoma (SK-N-AS) cell line; assay: MTT cytotoxicity assay, SK-N-AS; assay type: cell-based, human; conditions: MTT assay after 24 h incubation; for IC50: Homo sapiens, SK-N-AS, read-out: IC50 ± SD, SK-N-AS
Description: as §1

[18] = system: P. mirabilis ATCC 12453; assay: micro-dilution broth MIC; assay type: cell-based, Proteus mirabilis
Description: as §1

[19] = Bacillus cereus, ATCC10876, B. cereus ATCC 10876, Gram-positive, read-out: MIC
[20] = Micrococcus luteus, ATCC10240, M. luteus ATCC 10240, Gram-positive, read-out: MIC
[21] = Staphylococcus epidermidis, ATCC12228, S. epidermidis ATCC 12228, Gram-positive, read-out: MIC
[22] = Salmonella enterica, read-out: MIC
[23] = Nakaseomyces glabratus, ATCC2091, yeast, read-out: MIC
[24] = Bacillus subtilis, ATCC6633, B. subtilis ATCC 6633, Gram-positive, read-out: MIC
[25] = Escherichia coli, ATCC25922, Gram-negative, read-out: MIC
[26] = Enterococcus faecalis, ATCC29212, E. faecalis ATCC 29212, Gram-positive, read-out: MIC
[27] = Pseudomonas aeruginosa, ATCC9027, Gram-negative, read-out: MIC
[28] = Lodderomyces parapsilosis, ATCC22019, yeast, read-out: MIC
[29] = Staphylococcus aureus, ATCC25923, S. aureus ATCC 25923, Gram-positive, read-out: MIC
[30] = Klebsiella pneumoniae, ATCC13883, Gram-negative, read-out: MIC
[31] = Candida albicans, ATCC102231, yeast, read-out: MIC
[32] = Proteus mirabilis, ATCC12453, Gram-negative, read-out: MIC

Row | SMILES | MIC [1, 19] [µg/mL] | MIC [2, 20] [µg/mL] | IC50 [3] [µg/mL] | MIC [4, 21] [µg/mL] | MIC [5, 22] [µg/mL] | MIC [6, 23] [µg/mL] | IC50 [7] [µg/mL] | MIC [8, 24] [µg/mL] | MIC [9, 25] [µg/mL] | IC50 [10] [µg/mL] | MIC [11, 26] [µg/mL] | MIC [12, 27] [µg/mL] | MIC [13, 28] [µg/mL] | MIC [14, 29] [µg/mL] | MIC [15, 30] [µg/mL] | MIC [16, 31] [µg/mL] | IC50 [17] [µg/mL] | MIC [18, 32] [µg/mL] | other results
1 | Brc1cnc2[nH]c(-c3cccnc3)nc2c1 [Complex L4] | 1000 | > 1000 | > 100 | 1000 | > 1000 | > 1000 | > 100 | 1000 | > 1000 | > 100 | 1000 | > 1000 | 1000 | > 1000 | > 1000 | 500 | > 100 | > 1000 | –
2 | [Cl][Zn-2]1([Cl])[n+]2cccc(c2)-c2nc3c(ccc[n+]3[Zn-2]([Cl])([Cl])[n+]3cccc(c3)-c3nc4c(ccc[n+]41)[nH]3)[nH]2 [Complex C3] | – | – | – | – | – | – | – | – | – | – | – | – | – | – | – | – | – | – | MIC ([1]; B. cereus ATCC 10876, Gram-positive): >1000 µg/mL; MIC ([2]; M. luteus ATCC 10240, Gram-positive): 500 µg/mL; IC50 ± SD, CCD-1059-Sk [3]: 30.84 ± 1.11 µg/mL; MIC ([4]; S. epidermidis ATCC 12228, Gram-positive): 1000 µg/mL; MIC [5]: >1000 µg/mL; MIC ([6]; yeast): >1000 µg/mL; IC50 ± SD, T98G [7]: 46.54 ± 1.86 µg/mL; MIC ([8]; B. subtilis ATCC 6633, Gram-positive): >1000 µg/mL; MIC ([9]; Gram-negative): >1000 µg/mL; IC50 ± SD, A549 [10]: 41.34 ± 2.17 µg/mL; MIC ([11]; E. faecalis ATCC 29212, Gram-positive): >1000 µg/mL; MIC ([12]; Gram-negative): >1000 µg/mL; MIC ([13]; yeast): >1000 µg/mL; MIC ([14]; S. aureus ATCC 25923, Gram-positive): 1000 µg/mL; MIC ([15]; Gram-negative): >1000 µg/mL; MIC ([16]; yeast): >1000 µg/mL; IC50 ± SD, SK-N-AS [17]: 41.60 ± 1.93 µg/mL; MIC ([18]; Gram-negative): >1000 µg/mL
3 | O=C(O)c1cn(C2CC2)c2cc(N3CCNCC3)c(F)cc2c1=O [Cip, ciprofloxacin, reference compound] | – | – | – | – | 0.061 (≈ 0.184 µM) | – | – | – | 0.015 (≈ 0.0453 µM) | – | – | 0.49 (≈ 1.48 µM) | – | – | 0.12 (≈ 0.362 µM) | – | – | 0.03 (≈ 0.0905 µM) | –
4 | C[C@@H]1[C@H](O)[C@@H](C)/C=C/C=C/CC/C=C/C=C/C=C/C=C/C(O[C@H]2O[C@H](C)[C@@H](O)[C@H](N)[C@@H]2O)CC2O[C@](O)(CC(O)C(O)CCC(O)CC(O)CC(O)CC(=O)O[C@H]1C)CC(O)C2C(=O)O (some centres unmarked) [Nys, nystatin, reference compound] | – | – | – | – | – | – | – | – | – | – | – | – | – | – | – | – | – | – | MIC ([6]; yeast): 0.48 µg/mL (≈ 0.518 µM); MIC ([13]; yeast): 0.24 µg/mL (≈ 0.259 µM); MIC ([16]; yeast): 0.24 µg/mL (≈ 0.259 µM)
5 | CN[C@H](CC(C)C)C(=O)N[C@H]1C(=O)N[C@@H](CC(N)=O)C(=O)N[C@H]2C(=O)N[C@H]3C(=O)N[C@H](C(=O)N[C@H](C(=O)O)c4cc(O)cc(O)c4-c4cc3ccc4O)[C@H](O)c3ccc(c(Cl)c3)Oc3cc2cc(c3O[C@@H]2O[C@H](CO)[C@@H](O)[C@H](O)[C@H]2O[C@H]2C[C@](C)(N)[C@H](O)[C@H](C)O2)Oc2ccc(cc2Cl)[C@H]1O [Van, Vancomycin, reference compound] | – | – | – | – | – | – | – | – | – | – | – | – | – | – | – | – | – | – | MIC ([1]; Bacillus cereus, ATCC10876): 0.98 µg/mL (≈ 0.676 µM); MIC ([2]; Micrococcus luteus, ATCC10240): 0.12 µg/mL (≈ 0.0828 µM); MIC ([4]; Staphylococcus epidermidis, ATCC12228): 0.98 µg/mL (≈ 0.676 µM); MIC ([8]; Bacillus subtilis, ATCC6633): 0.24 µg/mL (≈ 0.166 µM); MIC ([11]; Enterococcus faecalis, ATCC29212): 1.95 µg/mL (≈ 1.35 µM); MIC ([14]; Staphylococcus aureus, ATCC25923): 0.98 µg/mL (≈ 0.676 µM)
6 | c1cnc2[nH]c(-c3ccncc3)nc2c1 [Complex L2] | 250 | 250 | > 100 | 1000 | 1000 | > 1000 | 35 ± 1.44 | 500 | 1000 | 43.1 ± 2.17 | 1000 | > 1000 | > 1000 | 1000 | > 1000 | 1000 | 81.3 ± 3.31 | 1000 | –
7 | c1cc(-c2nc3ccncc3[nH]2)ccn1 [Complex L1] | > 1000 | 500 | > 100 | > 1000 | > 1000 | > 1000 | 41.2 ± 2.3 | > 1000 | > 1000 | > 100 | > 1000 | > 1000 | > 1000 | > 1000 | > 1000 | > 1000 | > 100 | > 1000 | –

Reference: publication PMC9224258, “Zinc Coordination Compounds with Benzimidazole Derivatives: Synthesis, Structure, Antimicrobial Activity and Potential Anticancer Application” (International Journal of Molecular Sciences, 2022)
